According to patent publication US5843916A, “Cyclic amp analogues, individually and in pairs, to inhibit neoplastic cell growth” (priority 1994, dated 1998):
Read-outs that look alike come from different tables or passages of the source.

Assays:
[1] = test system: breast (MCF-7) and colon (LS-174T) cancer cell lines; test: Growth inhibition of breast and colon cancer cells (Table 1); format: cell-based, human; conditions: Homo sapiens
Description: The compounds of the present invention were added using 100X concentrated stock solutions. At desired times, cell counts in duplicate were performed on a Coulter counter after harvesting the cells with gentle trypsinization. […] Cell counts were performed on each of three or more separate experiments, and the average values are expressed as percent growth inhibition as compared with untreated control cells. | ^a The values of percentage growth inhibition were determined from th | doseresponse curve experiments. Each value represents an average value an | range (in parentheses) obtained from three or more separate experiments. | The cell counts in duplicate were performed at day 3 and day 4 after two | treatments (day 0 and day 2) with analogs (seeding on day -1).

[2] = molecular target: T1, RI, regulatory subunit of cAMP-dependent protein kinase type I (Oryctolagus cuniculus, UniProt G1TDN4); conditions: literature, cited from earlier work
T1 construct: from tissue
T1 sequence (G1TDN4 1-381): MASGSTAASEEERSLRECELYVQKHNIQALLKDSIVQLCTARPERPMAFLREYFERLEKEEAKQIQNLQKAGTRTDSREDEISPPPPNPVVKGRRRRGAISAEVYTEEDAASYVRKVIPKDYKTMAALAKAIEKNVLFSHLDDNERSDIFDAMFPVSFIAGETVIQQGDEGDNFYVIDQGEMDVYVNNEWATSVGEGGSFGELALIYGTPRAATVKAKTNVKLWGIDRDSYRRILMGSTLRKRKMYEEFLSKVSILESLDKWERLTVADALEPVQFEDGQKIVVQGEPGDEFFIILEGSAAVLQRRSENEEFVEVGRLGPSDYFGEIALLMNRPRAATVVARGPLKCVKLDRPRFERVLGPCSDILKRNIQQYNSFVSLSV

[3] = molecular target: T2, RII, regulatory subunit of cAMP-dependent protein kinase type II (Bos taurus, UniProt P00515); conditions: literature, cited from earlier work
T2 construct: from tissue
T2 sequence (P00515 whole entry): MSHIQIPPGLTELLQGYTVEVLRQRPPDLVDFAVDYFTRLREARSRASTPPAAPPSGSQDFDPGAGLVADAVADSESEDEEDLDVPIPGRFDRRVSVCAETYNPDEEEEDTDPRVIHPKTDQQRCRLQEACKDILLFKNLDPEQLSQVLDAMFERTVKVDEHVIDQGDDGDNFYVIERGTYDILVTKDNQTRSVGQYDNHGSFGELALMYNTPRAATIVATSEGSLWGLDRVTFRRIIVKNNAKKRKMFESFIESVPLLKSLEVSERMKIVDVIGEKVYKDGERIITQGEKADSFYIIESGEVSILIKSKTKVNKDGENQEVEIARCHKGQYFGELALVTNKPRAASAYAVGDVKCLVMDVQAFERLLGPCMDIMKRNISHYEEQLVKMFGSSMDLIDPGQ

[4] = test system: four leukemic cell lines (HL-60, K-562, myc-K562, Molt-4); test: Growth inhibition of leukemic cell lines; format: cell-based, human; conditions: leukemic cell lines
[5] = test system: HL-60; test: Growth inhibition of leukemic cells (Table 12); format: cell-based; conditions: Homo sapiens
[6] = test system: K-562; test: Growth inhibition of leukemic cells (Table 12); format: cell-based; conditions: Homo sapiens, K562
[7] = test system: HL-60 human leukemia cells; test: Growth inhibition of HL-60 leukemia cells (Example 3, Table 16); format: cell-based; conditions: Homo sapiens
Description: HL-60 leukemic cells were obtained from the American Type Culture Collection (Rockville, Md.) and were grown in suspension culture in RPMI 1640 supplemented with 10% heat-inactivated fetal bovine serum, streptomycin (500 μg/ml), penicillin (50 units/ml), and glutamine (1 mM) (Gibco, Grand Island, N.Y.).
Cell counts were performed at desired times on a Coulter Counter.
The IC50 values were determined from the dose-
represent an average value obtained for each analogue
from two or more separate experiments carried out from 3
days or 6 days. Initial cell number, 1 × 10^5 /dish.
Typical numbers of untreated control cells at day 3 and
viability in treated and control cells.

[8] = test system: myc-K562; test: Growth inhibition of leukemic cells (Table 12); format: cell-based; conditions: Homo sapiens
[9] = test system: Molt-4; test: Growth inhibition of leukemic cells (Table 12); format: cell-based, human; conditions: Homo sapiens, MOLT-4; read-out: Inhibition of Growth IC50, Molt-4
[10] = 72 h, 50 μM, day 3, average (range), read-out: % Growth Inhibition, Day 3
[11] = 96 h, 50 μM, day 4, average (range), read-out: % Growth Inhibition, Day 4
[12] = 50 micromolar, read-out: growth inhibition

SMILES: O=P1(O)OC[C@H]2O[C@@H](n3c(Sc4ccc(Cl)cc4)nc4c(N5CCCCC5)ncnc43)[C@H](O)[C@@H]2O1 [6-piperidino-8-p-chlorophenylthio-cAMP]
- inhibition at 50 µM [1, 10]: 33%
- inhibition at 50 µM [1, 11]: 25%

SMILES: Nc1ncnc2c1nc(Br)n2[C@@H]1O[C@@H]2COP(=O)(O)O[C@H]2[C@H]1O [8-Br-cAMP, 8-bromo-adenosine 3': 5'-monophosphate]
- relative affinity Ki (cAMP)/Ki (analogue), RI Site A ([2]; Site A (Site 2)): 1.30
- relative affinity Ki (cAMP)/Ki (analogue), RI Site B ([2]; Site B (Site 1)): 1.0
- relative affinity Ki (cAMP)/Ki (analogue), RII Site A ([3]; Site A (Site 2)): 0.11
- relative affinity Ki (cAMP)/Ki (analogue), RII Site B ([3]; Site B (Site 1)): 6.8
- times less potent than 8-Cl-cAMP [4]: 5-20 times
- IC50 [5]: 50 µM
- IC50 [6]: 100 µM
- IC50 ([7]; HL-60, 72 h, read-out: Growth inhibition (IC50), Day 3): 100 µM
- IC50 ([7]; HL-60, 144 h, read-out: Growth inhibition (IC50), Day 6): 18 µM
- inhibition at 20 µM ([7]; HL-60, 20 μM, read-out: growth inhibition): < 5%
- inhibition at 50 µM [1, 10]: 41%
- inhibition at 50 µM [1, 11]: 40%
- inhibition at 50 µM [1, 12]: 40 to 75%
- IC50 [8]: 100 µM
- IC50 [9]: 100 µM

SMILES: CN(C)c1nc2c(N)ncnc2n1[C@@H]1O[C@@H]2COP(=O)(O)O[C@H]2[C@H]1O [8-N,N-dimethylamino-cAMP]
- inhibition at 50 µM [1, 10]: 0%
- inhibition at 50 µM [1, 11]: 0%
- inhibition at 50 µM [1, 12]: ≤ 20%

SMILES: Nc1ncnc2c1nc(I)n2[C@@H]1O[C@@H]2COP(=O)(O)O[C@H]2[C@H]1O [8-iodo-cAMP]
- inhibition at 50 µM [1, 10]: 26%
- inhibition at 50 µM [1, 11]: 25%

SMILES: Nc1ncnc2c1nc(Sc1ccc(Cl)cc1)n2[C@@H]1O[C@@H]2COP(=O)(O)O[C@H]2[C@H]1O [8-p-chlorophenylthio-cAMP]
- inhibition at 50 µM [1, 10]: 23%
- inhibition at 50 µM [1, 11]: 24%

SMILES: Nc1ncnc2c1nc(NCCO)n2[C@@H]1O[C@@H]2COP(=O)(O)O[C@H]2[C@H]1O [8-β-hydroxyethylamino-cAMP]
- inhibition at 50 µM [1, 10]: 15%
- inhibition at 50 µM [1, 11]: 20%
- inhibition at 50 µM [1, 12]: ≤ 20%

SMILES: CCOC(=O)Nc1ncnc2c1ncn2[C@@H]1O[C@@H]2COP(=O)(O)O[C@H]2[C@H]1O [N^6 -ethoxycarbonyl-cAMP]
- inhibition at 50 µM [1, 10]: 32%
- inhibition at 50 µM [1, 11]: 40%
- inhibition at 50 µM [1, 12]: 30 to 70%

SMILES: O=C(Nc1ccccc1)Nc1ncnc2c1ncn2[C@@H]1O[C@@H]2COP(=O)(O)O[C@H]2[C@H]1O [N^6 -phenylcarbamoyl-cAMP]
- inhibition at 50 µM [1, 10]: 10%
- inhibition at 50 µM [1, 11]: 10%

SMILES: CCN(CC)c1ncnc2c1nc(Sc1ccc(Cl)cc1)n2[C@@H]1O[C@@H]2COP(=O)(O)O[C@H]2[C@H]1O [N^6,N ^6-diethyl-8-p-chlorophenylthio-cAMP]
- inhibition at 50 µM [1, 10]: 43%
- inhibition at 50 µM [1, 11]: 45%
